Three compounds from patent US4522803A (priority 1983, dated 1985) can be followed below.

Data set [1] relates to B. canis. The class given is cell-based. The note with it: suspension culture.
The nature of data set [2]: Retention and sustained release of gentamycin after topical application in eyes of mice.
In the next data set the test system is B. canis antigen. The note with it: in vivo.
Data set [3] relates to B. canis. The arrangement: species or system B. canis ATCC 23365. The note with it: in vivo.
Data set [4] deals with B. abortus. It is filed as cell-based. The note with it: mean ± SD of 12 replicates; streptomycin 1 mg/ml, 24 hours.
In data set [5] the test system is B. canis. The arrangement: species or system B. canis ATCC 23365. The settings on record: in vivo. The source holds these as a separate data set.
Data set [6] has as its system B. canis. The arrangement: species or system B. canis ATCC 23365. The settings on record: in vivo, ip, 10 mg/kg.
The subject of data set [7] is B. abortus. The arrangement: species or system B. abortus ATCC 23451. The note with it: in vivo, ip, 10 mg/kg.
The subject of another data set is M. bovis. It is filed as in vivo.
The test system of data set [8] is B. canis. Further details: species or system B. canis ATCC 23365. The note with it: in vivo, ip, 10 mg/kg. This is another data set of the same source.
Data set [9] deals with B. canis. It is filed as cell-based.

Read-outs that look alike come from different tables or passages of the source.

On to Gentamycin, for which, in the data set on B. canis [1], the “Killing of B. canis in vitro” value is “kill B. canis in vitro”. Further, the “Gentamycin retained in eyelid tissue” value in data set [2] (4 hours, topical) is reported as “less than 5%”. The compound also showed a Gentamycin sulfate cleared in data set [2] (within a 4 hour period) of 95%.

As for `[H]/N=C(/N)N[C@H]1[C@H](O)[C@@H](O)[C@H](O[C@@H]2O[C@@H](C)[C@](O)(C=O)[C@H]2O[C@@H]2O[C@@H](CO)[C@H](O)[C@@H](O)[C@@H]2NC)[C@@H](N/C(N)=N\[H])[C@@H]1O` [Streptomycin], the “M (2-mercaptoethanol tube agglutination test), reciprocal of serum titer” value in the data set on B. canis antigen was 0 × 10^2. The “R (rapid slide agglutination test), reciprocal of serum titer” value in the data set on B. canis antigen was 0 × 10^2. Besides, the “Serum antibody against B. canis” value in the data set with B. canis antigen (ip, 10 mg/kg) is “developed detectable serum titers against B. canis antigens by day 21 post-inoculation”. Also, the “Killing of B. canis in vitro” value in the data set with B. canis [1] is recorded as “kill B. canis in vitro”. In the data set with B. canis [3], the “Surviving B. canis in spleens” value is “very little reduction in surviving B. canis in spleens was observed”. The “Colony-forming units of intracellular B. abortus” value in the data set with B. abortus [4] is 3.3 ± 0.25 × 10^4 CFU. The “Colony-Forming Units B. Canis Per Spleen” value in the data set on B. canis [5] was 1.01 ± 0.17 × 10^5. Also, the “Surviving B. canis per organ” value in the data set with B. canis [6] was “viable B. canis organisms could be isolated in all tissues sampled”. Also, the “Surviving B. abortus in spleen” value in the data set on B. abortus [7] was “viable B. abortus bacteria were be identified”. The “M. Bovis cultures positive” value in the data set on M. bovis (UV-radiated, day 3 post-treatment) is reported as 3/5; in the data set with M. bovis (UV-radiated, day 5 post-treatment), 4/5; in the data set with M. bovis (non-radiated, day 3 post-treatment) it was 2/5; with M. bovis (non-radiated, day 5 post-treatment), 2/5. Further, the “Number of mice with corneal opacity score 0” value was found to be 14 in the data set on M. bovis (UV-radiated, post-treatment); 0 in the data set with M. bovis (UV-radiated, pre-treatment); 18 with M. bovis (non-radiated, post-treatment); 18 with M. bovis (non-radiated, pre-treatment). The “Number of mice with corneal opacity score 1 (loss of normal luster)” value is listed as 3 in the data set with M. bovis (UV-radiated, post-treatment); 4 with M. bovis (UV-radiated, pre-treatment); 2 in the data set with M. bovis (non-radiated, post-treatment); 1 in the data set with M. bovis (non-radiated, pre-treatment). The “Number of mice with corneal opacity score 2 (small foci of opacity)” value stood at 2 in the data set with M. bovis (UV-radiated, post-treatment); 9 in the data set on M. bovis (UV-radiated, pre-treatment); 0 in the data set with M. bovis (non-radiated, post-treatment); 1 in the data set on M. bovis (non-radiated, pre-treatment). Further, the “Number of mice with corneal opacity score 3 (partial opacity)” value in the data set with M. bovis (UV-radiated, post-treatment) was 1; in the data set on M. bovis (UV-radiated, pre-treatment) it was 7; in the data set on M. bovis (non-radiated, post-treatment) it was 0; with M. bovis (non-radiated, pre-treatment), 0. Moreover, the “Number of mice with corneal opacity score 4 (total opacity)” value came out at 0 in the data set with M. bovis (UV-radiated, post-treatment); 0 with M. bovis (UV-radiated, pre-treatment); 0 in the data set on M. bovis (non-radiated, post-treatment); 0 in the data set with M. bovis (non-radiated, pre-treatment). The “Blood and vaginal culture outcome” value in the data set with B. canis [8] was “remained culture positive for blood and vaginal cultures during post-treatment periods”. In addition, in the data set on B. canis [9], the “Colony-forming units of intracellular B. canis” value is 3.11 + 0.40 × 10^3 CFU.

`CN[C@@H]1[C@H](O[C@H]2[C@H](O[C@H]3[C@H](O)[C@@H](O)[C@H](NC(=N)N)[C@@H](O)[C@@H]3NC(=N)N)O[C@@H](C)[C@]2(O)CO)O[C@@H](CO)[C@H](O)[C@H]1O` [Dihydrostreptomycin]: the “Killing of B. canis in vitro” value in the data set on B. canis [1] is “kill B. canis in vitro”. Also, the “Colony-Forming Units B. Canis Per Spleen” value with B. canis [5] is given as 1.13 ± 0.30 × 10^5.
